The values below come from patent US20220409526A1 (Retina Foundation Of The Southwest, priority 2019, published 2022).

For series [1], the system named is ARPE-19 cells. Put plainly: GSH assay (Promega GSH/GSSG-Glo). The class given is cell-based, human. Conditions: 1 mM for 24 hours. How it is done: The production of cellular GSH levels upon exposure to drugs were measured using the GSH assay kit. NACA and GSH-EE were used as controls in this assay. ARPE-19 cells were grown in white 96 well plates. The cells were exposed to 1 mM solutions of NAC, NACME, NACEE, NACPE, NACBE, NACA and glutathione ethyl ester (GSH-EE) for 24 hours. The solutions were removed and washed with PBS once. Afterwards, GSH assay was carried out according to manufacturer recommended protocol (Promega GSH/GSSG-Glo™) and luminescence readings were obtained with a luminometer, which a higher luminescence intensity indicates a higher GSH concentration.

In series [2] the test system is ARPE-19 cells. Put plainly: in vitro. It is filed as cell-based, human. How it is done: (§1) ARPE-19 cells were grown in DMEM:F-12 supplemented with 10% fetal bovine serum (FBS). For all experiments these cells were split and grown in 6-well plates using MEM-Nic supplemented with 1% FBS according to a previously published procedure.^33 Cells used for all the experiments were between passages 25-30. For all experiments, the 96 well plates and 8-well slides were coated with 0.039 mg/mL collagen I at 6 μg/cm^2. The cells were seeded at a cell density of 70,000 cells/well and 150,000 cells/well using MEM-Nic media for 96 well plates and 8 well slides, respectively. Once the cells are confluent, media was replaced with MEM a, GlutaMAX™, supplemented with 1% FBS for 24 hours before carrying out assay protocols. Exposure to NAC alkyl-ester prodrugs were carried out in MEM a, GlutaMAX™, supplemented with 1% FBS and treatment with HQ was carried out in serum free DMEM:F-12.
(§2) ARPE-19 Cell viability assays were carried out using XTT/PMS reagent mixtures according to standard procedures known in the art (see Celis, J. E.; Carter, N., Cell Biology: A Laboratory Handbook. Elsevier Science: 2005). Corresponding absorbance readings were obtained using a plate reader at 450 and 660 nm.
(§3) A dose dependent study was first carried out for ARPE-19 cells using HQ concentrations varying from 100-1000 μM. Cells were then incubated at 37° C., 5% CO2 for 16 hours. HQ doses of less than 400 μM were non-lethal. Using 500 μM HQ for 16 hours gave a cell viability of ˜60%.
(§4) To evaluate the ability of the NAC alkyl-ester analogues to provide cellular protection against oxidative stress, cells were treated with 0.05 mM of NAC, NACME, NACEE, NACPE and NACBE for 2, 24 and 48 hours. Treated cells were then exposed to 500 μM HQ for 16 hours. HQ solutions were removed and replaced with DMEM:F-12 supplemented with 1% FBS, and followed by the addition of XTT (2,3-bis-(2-methoxy-4-nitro-5-sulfophenyl)-2H-tetrazolium-5-carboxanilide) and PMS (phenazine methyl sulfate).
(§5) To compare the effectiveness of NACBE and NAC in protecting against oxidative damage, another dose dependent study was carried out by varying the pretreatment concentration from 0.001 mM to 1.0 mM. […] Whereas for NAC, to reach the same cell viability, 0.5 mM concentration was needed (10× times that of NACBE).

Series [3] concerns ARPE-19 cells. The experiment in a line: ZO-1 staining of cellular junctions. The class given is cell-based, human. The procedure: ARPE-19 cells were grown on an 8-well slide until confluent. The cells were exposed to 1 mM NAC and NACBE for 24 hours, followed by treatment with 500 μM of HQ for 2 hours. The cells were washed with 3 cycles of PBS, and then fixed with 4% Paraformaldehyde at 4° C. for 30 mins. After fixation the cells were blocked in PBST (0.2% Triton X-100)+1% BSA for 60 mins. Primary antibody (rabbit anti-Zo-1, Invitrogen) was diluted 1/100 in PBST+1% BSA and added overnight at […]. Cells were washed ×3 with PBS and secondary antibody (Donkey anti-Rabbit AF-555, Abcam) was added for 4 hours at RT. Cells were washed ×3 with PBS and mounted with Prolong Diamond Mountant with DAPI (Invitrogen).

The subject of series [4] is ARPE-19 cells. The experiment in a line: HPLC analysis of cellular uptake and conversion to NAC. It is filed as in vitro ADME, human. Conditions: 1 mM for 1 hour in HBSS. How it is done: ARPE-19 cells were seeded onto a 60 cm^2 dish and was allowed to grow to confluency. The cells were treated with 1 mM NAC and NACBE for 1 hour in HBSS. The drug solution was aspirated and washed twice with HBSS. The cells were scraped with the aid of methanol (˜1 mL) and collected into 2 mL centrifuge tubes. The cell suspension in methanol was sonicated (for cell lysis) in a water bath for 30 minutes and was centrifuged at 14,000 RPM for 15 minutes. The supernatant was transferred to a HPLC vial and methanol was evaporated under a stream of nitrogen.
The sample was resuspended in 50 μL of methanol before injecting into the HPLC system. Samples and standard (20 μL) were injected with an autosampler. Separation was conducted by 0.8 mL/min gradient elution with a water/0.10% formic acid and acetonitrile mobile phase on a 250×4.6-mm ([…]) C18 column (Restek, Pinnacle II) maintained at 25° C. The samples were monitored at 205 nm with a UV detector and analyzed with Agilent Chemstation software.

Series [5] deals with ARPE-19 cells. The experiment in a line: CellTiter-Glo assay (ATP). It is filed as cell-based, human. How it is done: ARPE-19 cells were grown in white 96 well plates. The cells were first exposed to 500 μM of HQ for 3, 6 and 8 hours and the amount of ATP produced was measured using the CellTiter-Glo assay kit to obtain a time dependent response (FIG. 15). […] Due to the mitochondrial damage caused by HQ, the production of ATP was decreased.
On the technique in general: ATP-based viability assays read luminescence as a measure of living cells.

For series [6], the system named is mitochondrial DNA of ARPE-19 cells. Put plainly: DNA fragmentation assay (long-extension PCR of mitochondrial DNA). It is filed as cell-based, human. The procedure:
Mitochondrial DNA damage has been linked to pathogenic diseases, including AMD. To determine if pretreatment of RPE cells with NAC alkyl-ester analogues could protect mitochondrial DNA against oxidative damage, a long-extension PCR based assay was used to measure amplification of a large stretch of mitochondrial DNA. The mitochondrial DNA damage assay was performed according to protocols known to those in the art (see Santos, J. H.; Mandavilli, B. S.; Van Houten, B., Measuring Oxidative mtDNA Damage and Repair Using Quantitative PCR. In Mitochondrial DNA: Methods and Protocols, Copeland, W. C., Ed. Humana Press: Totowa, N.J., 2002; pp 159-176). Briefly, ARPE-19 cells were grown to confluency in 6-well plates. The cells were treated with NAC alkyl-ester analogues for 24 hours, washed and then treated with 500 uM HQ for an additional 24 hours. DNA was isolated from the treated cells with a QIAamp DNA mini kit (Qiagen). The DNA samples were diluted to 3 ng/μl for use in PCR reactions. PCR products were quantified using the Quant-iT Picogreen dsDNA Assay kit (Invitrogen). The relative amplification of the large band was normalized to untreated cells. The amplification of the small mitochondrial band was used to normalize the data obtained from the large band to account for mitochondrial DNA copy number.

In series [7] the test system is ARPE-19 cells. Put plainly: JC-1 staining (confocal). Conditions: 1 mM pretreatment for 24 hours, then 50 μM HQ for 4 hours.
Source text: The cells were imaged on the confocal (Zeiss LSM 800) by excitation with the 488 nm laser and emission imaged at 530 nm (green channel) and 590 nm (red channel).
Series [8] is described as follows: in vitro. The class given is cell-based, human. Conditions: human. How it is done: as §1, §2, §3, §4, §5
Series [9] relates to ARPE-19 cells. The experiment in a line: JC-1 assay (mitochondrial membrane potential). The class given is cell-based, human. Conditions: 50 μM HQ for 4 hours, compared to the control. How it is done:
JC-1 assays measuring the change in mitochondrial membrane potential were carried out to evaluate the protection of the NAC alkyl-ester analogues towards mitochondrial damage.
Typically, JC-1 dye has an inherent green fluorescence at 530 nm. Upon reaching the cell, due to the structural properties of the dye, it will accumulate in the mitochondria making aggregates known as J-aggregates. These J-aggregates consists of a red shifted fluorescence (590 nm). Damaged or unhealthy mitochondria, due to their depolarized membrane potential (compared to healthy ones), will have lesser amounts of aggregates and thus will have low intensity of red emission. Cells with healthy mitochondria will have a more prominent red fluorescence than that in cells with damaged/unhealthy mitochondria due to the ability in forming J-aggregates.
ARPE-19 cells were grown in black, clear bottom 96 well plates. […] With increasing time and dose of HQ, a drop in 590 nm/530 nm fluorescence is seen due to the depolarization of the mitochondria.
Next, to assess the effect of NAC alkyl-ester analogues on oxidative damage in mitochondria (FIG. 12B), ARPE-19 cells were pretreated with 1 mM NAC, NAC alkyl-ester analogues, NACA, GSH-EE and 1 μM MitoQ for 1 and 24 hours. […] The JC-1 solution was removed and washed once with PBS and fluorescence measurements were obtained in PBS at 485 nm excitation and emission at 535 nm and 590 nm. […]

By viability is commonly meant a read-out of living cells in per cent, often relative to untreated cells. Lower therefore signals a greater loss of cells.

On to `CCCOC(=O)[C@H](CS)NC(C)=O` [NACPE, N-acetylcysteine propyl ester], for which the “cellular GSH level (luminescence) compared to untreated cells” value in series [1] is “produced the highest amounts of GSH”.
On the same count and under the same terms, the entry for `CCOC(=O)CNC(=O)[C@H](CS)NC(=O)CC[C@H](N)C(=O)O` [GSH-EE, glutathione ethyl ester] is “did not produce any significant GSH”; for `CCOC(=O)[C@H](CS)NC(C)=O` [NACEE, N-acetylcysteine ethyl ester] it is “produced the highest amounts of GSH”.
Take `CC(=O)N[C@@H](CS)C(=O)O` [NAC, N-acetylcysteine]: the “concentration needed for 100% cell viability relative to NACBE” value in series [2] (NAC 0.5 mM versus NACBE 0.05 mM) was 10 ×. Besides, the “pretreatment concentration at which 100% cell viability was obtained” value in [2] (pretreatment 0.001-1.0 mM for 24 hours, then 500 μM HQ for 16 hours) is recorded as 0.5 mM. In addition, in series [3] (1 mM for 24 hours, without HQ), the “ZO-1 staining of cell-cell junctions” value is given as “proper cell-cell junctions”. Moreover, the “ZO-1 staining of cellular junctions after exposure to HQ” value in [3] (1 mM pretreatment for 24 hours, then 500 μM HQ for 2 hours) is listed as “diminished or was completely absent”. The “compound and metabolite detected within the cells by HPLC” value in [4] is listed as “no NAC was detected”. Further, the “cellular GSH level (luminescence) compared to untreated cells” value in series [1] is given as “did not produce any significant GSH”. The “ATP production after HQ insult” value in [5] (1 mM pretreatment, then 500 μM HQ for 3, 6 and 8 hours) is recorded as “some protection”. In series [6] (pretreatment for 24 hours (1 mM), then 500 uM HQ for 24 hours), the “protection of mitochondrial DNA amplification against HQ” value was “did not show any signs of protection”. Moreover, the “mitochondrial membrane potential after HQ (JC-1 staining)” value in series [7] is given as “did not help to retain mitochondrial depolarization”.
For the molecule `CC(=O)N[C@@H](CS)C(N)=O`, the “cellular GSH level (luminescence) compared to untreated cells” value in series [1] is on record as “did not produce any significant GSH”.
In turn, `Oc1ccc(O)cc1` [HQ, hydroquinone] had a viability at 16 h, 500 μM in [8] of approximately 60%. Further, in series [2] (human, 16 h), the “non-lethal HQ doses” value is given as “less than 400 μM”. Also, in series [9], the “mitochondrial depolarization (590 nm/530 nm fluorescence)” value is recorded as “moderate depolarization”. In addition, the “level of ATP” value in series [5] (500 μM HQ for 3, 6 and 8 hours) was “the level of ATP decreased”. In addition, the “amplification of mitochondrial DNA” value in series [6] (500 uM HQ for 24 hours) is listed as “drastically reduced the amplification of mitochondrial DNA”.
